{"source": "patent US6365621B1", "about": "“Remedies or preventives for intractable epilepsy” (Pharmaceutical Co., Ltd., priority 1998, dated 2002)", "key": {"[1]": {"system": "male mouse", "details": "peroral; cited from earlier work"}, "[2]": {"system": "fully amygdala kindled rats", "experiment": "Seizures in fully amygdala kindled rats (GST stimulation)", "type": "in vivo, rat", "details": "for Change of ADD (%): afterdischarge duration before administration = 100; for Change of MSD (%): motor seizure duration before administration = 100", "method": "[Method for preparing a kindling model] Male Wistar rats (weight: 200-250 g, Tokyo Jikken Dobutsu) were used, and pentobarbital (50 mg/kg, Dinabot) and ketamine (50 mg/kg, Sankyo Co., Ltd.) were used as anesthetic agents.\nA dose-response of nefiracetam (15-180 mg/kg) with respect to a kindling seizure induced GTS stimulation intensity was evaluated in terms of the following parameters: seizure stage, and afterdischarge duration at the sitimulated amygdala and motor seizure duration.\nIn accordance with the method of Racine et al. (Modification of seizure activity by electrical stimulation: II motor seizure. Electroencephalography Clin. Neurophysiol. 1972. 32: 281-294), seizures were classified into the following five stages: stage 1 (chewing); stage 2 (head nodding); stage 3 (forelimb clonus); stage 4 (rearing); and stage 5 (rearing and falling).\nMotor seizure duration (seconds) was represented by the total duration of stages 3 through 5. Stage 1 or Stage 2 is a seizure symptom of the limbic system, and Stage 3, 4, or 5 is regarded a motor seizure (Sato, M., Racine, R. J., McIntyre, D. C., Kindling: basic mechanisms and clinical validity, Electroencephalography Clin. Neurophysiol. 1990, 76: 459-472).\nAfterdischarge duration (seconds) was recorded by use of an electrode for recording, and was represented by the seizure-discharge duration shown in a electroencephalogram, which is induced by a kindling stimulation. Nefiracetam was dissolved into a solvent (0.5% carboxymethyl cellulose) and the solution was administered orally 90 minutes before GST stimulation, wherein the amount of administered nefiracetam is classified into several stages within a range of 15-180 mg/kg.\n[Method] The rats used in this Example were of the same type in terms of the source of purchase, body weight, and age (week). For each rat, in the same manner as in of Example 1, there were performed anesthetization, setting of an electrode on the amygdala, fixation of the electrode at the cranial bone, and a kindling stimulation (50 Hz, sine wave).\nFor non-administered rats and nefiracetam-administered rats (120 mg/kg), the effect of the administration was evaluated when GST stimulation intensity was increased by a factor of two (GST 2) or three (GST 3). The effect of 120 mg/kg of nefiracetam on kindling seizures induced by one-fold, two-fold, and three-fold GTS stimulation was evaluated in terms of the following parameters: seizure stage, motor seizure duration, and afterdischarge duration."}, "[3]": {"system": "kainate-induced amygdala seizures", "type": "in vivo, rat", "method": "[Method for measuring an electrophysiological effect] The following operation was performed by use of 19 Wistar male rats (Japan SLC Co.) each having a weight of 250-350 g. Each rat was anesthetized by pentobarbital and fixed in a stereotaxic apparatus. […] Subsequently, a bipolar depth electrode having a diameter of 0.2 mm were inserted into bilateral amygdala (A, +5.0; L, +−5.0; D, −3.0) and hippocampus (A, +3.0; L, +−3.2; D, +1.5). Screw electrodes were set at the left sensorimotor area (A, +1.0 (from bregam); L, +−2.5; D, 0.5 (from dura)), frontal sinus, and occipital median. The electrodes were connected to sockets, and the cannula, the electrodes, and the sockets were fixed on the cranium by use of dental cement. Seven days after operation, 1 μL of a solution of kainic acid dissolved in phosphoric acid buffer (1 mg/ml) was injected through the cannula (rate: […]) (n=12), so as to induce limbic system seizures. The electrodes were connected to an electroencephalograph, and the behavior of the rat in a cage was observed. An electroencephalogram was recorded by use of the electrode at the frontal sinus serving as an indifferent electrode and the electrode at the occipital median serving as ground. The behavior and electroencephalogram were simultaneously recorded by use of a video electroencephalogram recorder based on an electroencephalograph (SYNAFIT 1000; NEC San-ei Instruments, LTD.).\nOne to two hours after the injection of kainic acid, when a limbic system seizure was in status epilepticus, nefiracetam dissolved in saline (10 mg/mL) was slowly injected into a caudal vein in an amount selected from 10, 50, 100, and 200 mg/kg (n=12). The same amount of saline was injected into a vein of rats of the control group (n=7). Subsequently, behavior and electroencephalograms of the rat were continuously recorded for at least eight hours, followed by two-hour recording after 24 hours, 48 hours, and 72 hours. Changes in clinical seizure and electroencephalogram observations just after the injection of the nefiracetam solution or saline, and occurrence of seizures and electroencephalogram observations after 24, 48, and 72 hours were measured, and the results were evaluated on the basis of the comparison."}, "[4]": {"details": "10 mg/kg i.v., EEG, individual rat"}, "[5]": {"details": "50 mg/kg i.v., EEG, individual rat"}, "[6]": {"details": "100 mg/kg i.v., EEG, individual rats"}, "[7]": {"details": "200 mg/kg i.v., EEG, individual rats"}, "[8]": {"details": "200 mg/kg i.v., individual rats"}}, "note": "Several values for one entry are separate records, joined by “and”; a condition that tells them apart may be missing. Equal values may be shown once. Read-outs that look alike come from different tables or passages of the source. Throughout, for Spikes from the amygdala after 24 h: key: (+): effective; (−): ineffective. Throughout, for Spikes from the amygdala after 48 h: key: (+): effective; (−): ineffective. Throughout, for Spikes from the amygdala after 72 h: key: (+): effective; (−): ineffective. Throughout, for Spikes from the amygdala just after intravenous injection: key: (+): effective; (−): ineffective."}
{"compound": "Cc1cccc(C)c1NC(=O)CN1CCCC1=O", "note": "[nefiracetam, N-(2,6-dimethylphenyl)-2-(2-oxo-1-pyrrolidinyl)acetamide]", "values": [{"measurement": "acute toxicity", "setting": "[1]", "result": "2,005 mg/kg"}, {"measurement": "Change of stage (%)", "setting": "[2]; 15 mg/kg p.o. 90 min before GST stimulation, seizure stage before administration = 100", "result": 80.0, "unit": "%"}, {"measurement": "Change of ADD (%)", "setting": "[2]; 15 mg/kg p.o.", "result": 81.7, "unit": "%"}, {"measurement": "Change of stage (%)", "setting": "[2]; 30 mg/kg p.o. 90 min before GST stimulation, seizure stage before administration = 100", "result": 100.0, "unit": "%"}, {"measurement": "Change of ADD (%)", "setting": "[2]; 30 mg/kg p.o.", "result": 99.9, "unit": "%"}, {"measurement": "Change of stage (%)", "setting": "[2]; 60 mg/kg p.o. 90 min before GST stimulation, seizure stage before administration = 100", "result": 80.0, "unit": "%"}, {"measurement": "Change of ADD (%)", "setting": "[2]; 60 mg/kg p.o.", "result": 83.9, "unit": "%"}, {"measurement": "Change of stage (%)", "setting": "[2]; 90 mg/kg p.o. 90 min before GST stimulation, seizure stage before administration = 100", "result": 76.0, "unit": "%"}, {"measurement": "Change of ADD (%)", "setting": "[2]; 90 mg/kg p.o.", "result": 82.3, "unit": "%"}, {"measurement": "Change of stage (%)", "setting": "[2]; 120 mg/kg p.o. 90 min before GST stimulation, seizure stage before administration = 100", "result": 13.3, "unit": "%"}, {"measurement": "Change of ADD (%)", "setting": "[2]; 120 mg/kg p.o.", "result": 25.0, "unit": "%"}, {"measurement": "Effect on afterdischarge duration", "setting": "[2]; 120 mg/kg, 3-times-GST stimulation intensity", "result": "the afterdischarge duration was restored"}, {"measurement": "Change of stage (%)", "setting": "[2]; 120 mg/kg, GST intensity 1-fold, before administration = 100", "result": 16.7, "unit": "%"}, {"measurement": "Change of MSD (%)", "setting": "[2]; 120 mg/kg, GST intensity 1-fold", "result": 11.1, "unit": "%"}, {"measurement": "Change of stage (%)", "setting": "[2]; 120 mg/kg, GST intensity 2-fold, before administration = 100", "result": 14.7, "unit": "%"}, {"measurement": "Change of MSD (%)", "setting": "[2]; 120 mg/kg, GST intensity 2-fold", "result": 15.2, "unit": "%"}, {"measurement": "Change of stage (%)", "setting": "[2]; 120 mg/kg, GST intensity 3-fold, before administration = 100", "result": 52.0, "unit": "%"}, {"measurement": "Change of MSD (%)", "setting": "[2]; 120 mg/kg, GST intensity 3-fold", "result": 43.8, "unit": "%"}, {"measurement": "Effect on afterdischarge duration", "setting": "[2]; 120 mg/kg, one-fold GST stimulation intensity", "result": "significant and strong inhibition"}, {"measurement": "Effect on afterdischarge duration", "setting": "[2]; 120 mg/kg, two-fold GST stimulation intensity", "result": "an effect on afterdischarge duration was reduced"}, {"measurement": "Change of stage (%)", "setting": "[2]; 180 mg/kg p.o. 90 min before GST stimulation, seizure stage before administration = 100", "result": 36.0, "unit": "%"}, {"measurement": "Change of ADD (%)", "setting": "[2]; 180 mg/kg p.o.", "result": 24.8, "unit": "%"}, {"measurement": "Effect on seizure stage, motor seizure duration and afterdischarge duration", "setting": "[2]; 15-180 mg/kg p.o., GST stimulation", "result": "dose-dependent inhibition"}, {"measurement": "ED50 (effect on seizure stage)", "setting": "[2]; regression curve by least-squares method, p.o., fully kindled rats", "result": 114, "unit": "mg/kg"}, {"measurement": "Disappearance of seizures intravenous injection", "setting": "[3]; 10 mg/kg i.v. during status epilepticus, individual rat", "result": "−"}, {"measurement": "Spikes from the amygdala after 24 h", "setting": "[3]; [4]", "result": "+"}, {"measurement": "Spikes from the amygdala just after intravenous injection", "setting": "[3]; [4]", "result": "+"}, {"measurement": "Sedative action", "setting": "[3]; 10 mg/kg i.v., individual rat", "result": "−"}, {"measurement": "Disappearance of seizures intravenous injection", "setting": "[3]; 50 mg/kg i.v. during status epilepticus, individual rat", "result": "−"}, {"measurement": "Spikes from the amygdala after 24 h", "setting": "[3]; [5]", "result": "+"}, {"measurement": "Spikes from the amygdala just after intravenous injection", "setting": "[3]; [5]", "result": "+"}, {"measurement": "Sedative action", "setting": "[3]; 50 mg/kg i.v., individual rat", "result": "−"}, {"measurement": "Duration of sedative action after injection", "setting": "[3]; 100 mg/kg i.v.", "result": "30 to 60", "unit": "min"}, {"measurement": "Disappearance of seizures intravenous injection", "setting": "[3]; 100 mg/kg i.v. during status epilepticus, individual rats", "result": "−"}, {"measurement": "Spikes from the amygdala after 24 h", "setting": "[3]; [6]", "result": "+"}, {"measurement": "Spikes from the amygdala just after intravenous injection", "setting": "[3]; [6]", "result": "+"}, {"measurement": "Sedative action", "setting": "[3]; 100 mg/kg i.v., individual rats", "result": "+"}, {"measurement": "Duration of sedation from just after the injection", "setting": "[3]; 200 mg/kg and 100 mg/kg i.v., approximately", "result": "60 to 90", "unit": "min"}, {"measurement": "Rats in which seizures were not suppressed (behavior and electroencephalogram)", "setting": "[3]; 200 mg/kg i.v.", "result": "3 out of the 8"}, {"measurement": "Disappearance of seizures intravenous injection", "setting": "[3]; 200 mg/kg i.v. during status epilepticus, individual rats", "result": "+ (5×) and − (3×)"}, {"measurement": "Spikes from the amygdala after 24 h", "setting": "[3]; [7]", "result": "− (3×) and + (4×)"}, {"measurement": "Spikes from the amygdala after 48 h", "setting": "[3]; [7]", "result": "− (3×) and + (3×)"}, {"measurement": "Spikes from the amygdala after 72 h", "setting": "[3]; [7]", "result": "− (3×) and + (3×)"}, {"measurement": "Spikes from the amygdala just after intravenous injection", "setting": "[3]; [7]", "result": "− (4×) and + (4×)"}, {"measurement": "Rats in which spikes corresponding to the amygdala disappeared from electroencephalogram", "setting": "[3]; 200 mg/kg i.v., among the 5 rats whose seizures disappeared", "result": "4 out of the 5"}, {"measurement": "Disappearance period of seizures after intravenous injection", "setting": "[3]; [8]", "result": "5 min and 35 min"}, {"measurement": "Sedative action", "setting": "[3]; [8]", "result": "+"}, {"measurement": "Death after intravenous injection (time)", "setting": "[3]; 200 mg/kg i.v., rat N5", "result": 25, "unit": "min"}, {"measurement": "Rats in which seizures disappeared after injection", "setting": "[3]; 200 mg/kg i.v., seizures later reappeared", "result": "5 out of 8"}, {"measurement": "Changes in paroxysmal behavior or electroencephalograms", "setting": "[3]; 10, 50, or 100 mg/kg i.v. during status epilepticus", "result": "no apparent changes"}]}
